Here are results for eleven compounds from patent US20230129359A1, “MUSCARINIC RECEPTOR 4 ANTAGONISTS AND METHODS OF USE” (Neurocrine Biosciences, Inc., priority 2020, published 2023).

Each structure is given as a SMILES string.

The experiment addresses T1, human M4 receptor (Homo sapiens, UniProt P08173).
T1 construct: expressed in transfected cells; host or cells: CHO cells
T1 sequence (P08173 1-479): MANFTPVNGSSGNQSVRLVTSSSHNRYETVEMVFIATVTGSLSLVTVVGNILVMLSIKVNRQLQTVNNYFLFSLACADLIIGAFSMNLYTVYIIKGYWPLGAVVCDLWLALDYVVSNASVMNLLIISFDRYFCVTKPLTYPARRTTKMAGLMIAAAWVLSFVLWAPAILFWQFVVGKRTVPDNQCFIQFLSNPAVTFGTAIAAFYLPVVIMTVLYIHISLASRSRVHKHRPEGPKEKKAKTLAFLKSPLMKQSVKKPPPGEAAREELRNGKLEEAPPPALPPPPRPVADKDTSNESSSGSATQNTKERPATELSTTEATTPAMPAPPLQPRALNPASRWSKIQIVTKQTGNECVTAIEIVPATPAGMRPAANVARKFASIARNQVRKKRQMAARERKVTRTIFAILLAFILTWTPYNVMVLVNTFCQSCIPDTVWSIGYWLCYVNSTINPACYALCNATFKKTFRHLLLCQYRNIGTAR
As to the kind of experiment: Radioligand ([3H]N-methylscopolamine) binding assay, membranes from CHO cells expressing human M4 receptor. The settings on record: Ki against human M4 receptor; membranes from CHO cells; tritiated N-methylscopolamine 1.5 nM; read-out: K. Put shortly:
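Competition binding used CHO-cell membranes expressing human M4 with 1.5 nM [3H]N-methylscopolamine and twelve compound concentrations ([…]). Incubation was 90 minutes at 37 °C in 50 mM HEPES, 100 mM NaCl, 5 mM MgCl2, 1 mM EDTA, pH 7.4. Bound ligand was collected by filtration onto PEI-treated glass fibre for Ki.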
On to `C[C@@H]1CN(c2nc3cc(F)ccc3o2)C[C@H](C)N1C(=O)OC1CC2(C1)CN(Cc1ccccc1)C2` [Compound 441, 2-benzyl-2-azaspiro[3.3]heptan-6-yl (2R,6S)-4-(5-fluoro-1,3-benzoxazol-2-yl)-2,6-dimethylpiperazine-1-carboxylate], for which the Ki was 10 to 100 nM.

Take `C[C@@H]1CN(c2nc3cc(F)ccc3o2)C[C@@H](C)N1C(=O)OC1CC2(C1)CN(Cc1ccccc1)C2` [Compound 442, 2-benzyl-2-azaspiro[3.3]heptan-6-yl (2R,6R)-4-(5-fluoro-1,3-benzoxazol-2-yl)-2,6-dimethylpiperazine-1-carboxylate]: the Ki fell in the range of 100 to 1000 nM.

With `C[C@@H]1CN(c2nc3cc(F)ccc3o2)[C@@H](C)CN1C(=O)OC1CC2(C1)CN(Cc1ccccc1)C2` [Compound 443, 2-benzyl-2-azaspiro[3.3]heptan-6-yl (2R,5S)-4-(5-fluoro-1,3-benzoxazol-2-yl)-2,5-dimethylpiperazine-1-carboxylate], the Ki is 10 to 100 nM.

For `C[C@@H]1CN(c2nc3ccc(F)cc3o2)C[C@H](C)N1C(=O)OC1CC2(C1)CN(Cc1ccccc1)C2` [Compound 444, 2-benzyl-2-azaspiro[3.3]heptan-6-yl (2R,6S)-4-(6-fluoro-1,3-benzoxazol-2-yl)-2,6-dimethylpiperazine-1-carboxylate], the Ki fell in the range of 10 to 100 nM.

Turning to `C[C@@H]1CN(c2nc3ccc(F)cc3o2)C[C@@H](C)N1C(=O)OC1CC2(C1)CN(Cc1ccccc1)C2` [Compound 445, 2-benzyl-2-azaspiro[3.3]heptan-6-yl (2R,6R)-4-(6-fluoro-1,3-benzoxazol-2-yl)-2,6-dimethylpiperazine-1-carboxylate], the Ki fell in the range of 10 to 100 nM.

Consider `C[C@@H]1CN(c2nc3ccc(F)cc3o2)[C@@H](C)CN1C(=O)OC1CC2(C1)CN(Cc1ccccc1)C2` [Compound 446, 2-benzyl-2-azaspiro[3.3]heptan-6-yl (2R,5S)-4-(6-fluoro-1,3-benzoxazol-2-yl)-2,5-dimethylpiperazine-1-carboxylate], for which the Ki lay in the range of 10 to 100 nM.

On to `C[C@@H]1CN(c2nc3cc(F)c(F)cc3s2)C[C@H](C)N1C(=O)OC1CC2(C1)CN(Cc1ccccc1)C2` [Compound 447, 2-benzyl-2-azaspiro[3.3]heptan-6-yl (2R,6S)-4-(5,6-difluoro-1,3-benzothiazol-2-yl)-2,6-dimethylpiperazine-1-carboxylate], for which the Ki is under 10 nM.

As for `C[C@@H]1CN(c2nc3cc(F)c(F)cc3s2)[C@@H](C)CN1C(=O)OC1CC2(C1)CN(Cc1ccccc1)C2` [Compound 449, 2-benzyl-2-azaspiro[3.3]heptan-6-yl (2R,5S)-4-(5,6-difluoro-1,3-benzothiazol-2-yl)-2,56-dimethylpiperazine-1-carboxylate], the Ki was under 10 nM.

As to `C[C@@H]1CN(c2ncc3cc(F)ccc3n2)C[C@H](C)N1C(=O)OC1CC2(C1)CN(Cc1ccccc1)C2` [Compound 453, 2-benzyl-2-azaspiro[3.3]heptan-6-yl (2R,6S)-4-(6-fluoroquinazolin-2-yl)-2,6-dimethylpiperazine-1-carboxylate], the Ki fell in the range of 10 to 100 nM.

Take `C[C@@H]1CN(c2ncc(C(F)(F)F)cn2)C[C@H](C)N1C(=O)OC1CC2(C1)CN(Cc1ccc(F)cc1)C2` [Compound 455, 2-[(4-fluorophenyl)methyl]-2-azaspiro[3.3]heptan-6-yl (2R,6S)-2,6-dimethyl-4-[5-(trifluoromethyl)pyrimidin-2-yl]piperazine-1-carboxylate]: the Ki is 10 to 100 nM.

`C[C@@H]1CN(c2ncc(C(F)(F)F)cn2)[C@@H](C)CN1C(=O)OC1CC2(C1)CN(Cc1ccc(F)cc1)C2` [Compound 456, 2-[(4-fluorophenyl)methyl]-2-azaspiro[3.3]heptan-6-yl (2R,5S)-2,5-dimethyl-4-[5-(trifluoromethyl)pyrimidin-2-yl]piperazine-1-carboxylate]: the Ki was under 10 nM.
